Measurements as given in patent US9539336B2, “Sialic acid derivatives” (priority 2012, dated 2017).

Experiments:
CD22 (Siglec-2) [1] = molecular target: T1, CD22 (Siglec-2) (Homo sapiens, UniProt P20273); conditions: Table II; affinity to CD22, BPC NeuAc = 1; cited from earlier work
T1 sequence (P20273 20-847): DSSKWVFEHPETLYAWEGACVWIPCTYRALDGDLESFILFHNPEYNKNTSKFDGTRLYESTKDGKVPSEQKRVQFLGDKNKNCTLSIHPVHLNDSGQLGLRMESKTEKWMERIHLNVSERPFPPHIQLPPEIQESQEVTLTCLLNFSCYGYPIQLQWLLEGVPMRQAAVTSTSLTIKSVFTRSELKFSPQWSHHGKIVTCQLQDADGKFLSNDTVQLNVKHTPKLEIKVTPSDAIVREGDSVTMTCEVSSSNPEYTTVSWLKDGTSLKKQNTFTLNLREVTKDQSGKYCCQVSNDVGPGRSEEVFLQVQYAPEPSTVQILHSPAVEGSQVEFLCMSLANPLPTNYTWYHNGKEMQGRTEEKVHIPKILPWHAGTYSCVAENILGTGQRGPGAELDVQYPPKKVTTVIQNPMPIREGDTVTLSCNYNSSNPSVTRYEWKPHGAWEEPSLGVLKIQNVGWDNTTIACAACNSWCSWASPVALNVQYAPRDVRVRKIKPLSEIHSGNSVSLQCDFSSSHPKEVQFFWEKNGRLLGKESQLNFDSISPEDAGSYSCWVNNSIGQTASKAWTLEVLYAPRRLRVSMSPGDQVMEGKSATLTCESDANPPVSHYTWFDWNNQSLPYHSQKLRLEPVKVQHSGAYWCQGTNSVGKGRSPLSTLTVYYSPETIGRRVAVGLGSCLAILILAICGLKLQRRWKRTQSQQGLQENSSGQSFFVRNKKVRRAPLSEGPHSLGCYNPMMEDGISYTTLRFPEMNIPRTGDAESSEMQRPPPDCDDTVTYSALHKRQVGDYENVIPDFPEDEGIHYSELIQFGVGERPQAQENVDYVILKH

CD22 (Siglec-2) [2] = molecular target: T1, CD22 (Siglec-2); assay: New assay: displacement of biotin conjugate 35 from sialidase-treated Daudi cells, measured by FACS; type: binding; set-up: endogenous in cells; host or cells: Daudi (human B cell lymphoma line); conditions: Table II, IC50 values converted into rIP, BPC NeuAc = 1, 2 μmolar substance 35
Description: In order to be able to determine the affinity of the novel derivatives to CD22, a new assay was developed. For this assay, compound 35 (conjugate of a sialic acid derivative of the formula (I) and biotin) was prepared.
To determine the affinity of the compound of the formula (I), approximately 2×10^8 cells of the human B cell lymphoma line “Daudi” were incubated with sialidase (A. ureafaciens) for 1 h at 37° C. Subsequently, the enzyme was blocked with 1.5 mM 2,3-dehydroNeu5Ac and the cells were washed twice with PBS. Batches of 1-2×10^6 cells were transferred to sample vials and incubated on ice for 15 min with serial concentrations (10-fold dilutions) of the substance to be measured (inhibitor) and then for 20 min with 2 μmolar substance 35. The reaction volume was 50 μl. After washing with PBS, the sample was incubated for 15 min with Streptavidin-PE in the dark, then washed and the amount of substance 35 bound via Streptavadin-PE was measured by FACS. For the determination of 0% displacement of substance 35, cells without inhibitor were measured. For the determination of 100% displacement, cells were measured without substance 35 and without inhibitor. 4 substances and one reference substance were measured per assay. The IC50 values determined in each assay were subsequently converted into rIP values. For this purpose, substance 46 served as reference. […]

Compound	rIP (Literature assay) (CD22 (Siglec-2) [1])	rIP (New assay) (CD22 (Siglec-2) [2])
COC(=O)CCCCCO[C@@H]1O[C@H](CO)[C@@H](O[C@@H]2O[C@H](CO[C@]3(C(=O)[O-])C[C@H](O)[C@@H](NC(C)=O)[C@H]([C@H](O)[C@H](O)CNC(=O)c4ccc(-c5ccccc5)cc4)O3)[C@H](O)[C@H](O)[C@H]2O)[C@H](O)[C@H]1NC(C)=O.[Na+] [BPC NeuAc- LN]	15.9	–
CO[C@]1(C(=O)[O-])C[C@H](O)[C@@H](NC(C)=O)[C@H]([C@H](O)[C@H](O)CNC(=O)c2ccc(-c3ccccc3)cc2)O1.[Na+] [BPC NeuAc]	1	1
